Assay results taken from US20160264925A1, “Reagents for Lysis of Bacterial Cells” (Roche Diagnostics Operations, Inc., priority 2009, published 2016).

Key:
[1] = tested on: Staphylococcus carnosus BMTU 7329; assay: Lysis of microbial cells in suspension, microscopic assessment (SYTO 9 staining): Gram-positive; assay type: cell-based; settings: for lysis of Gram-positive cell walls, summary in words: reagent and concentration as in Tables 1 and 2 (Example 4)
Method: (§1) Cell suspensions containing between about 10^7 and about 10^8 cells/ml were prepared.
(§2) The LIVE/DEAD® BacLight Bacterial Viability Kits supplied by Invitrogen utilize mixtures of the SYTO® 9 green-fluorescent nucleic acid stain (Invitrogen) and the red-fluorescent nucleic acid stain, propidium iodide. These stains differ both in their spectral characteristics and in their ability to penetrate healthy bacterial cells. When used alone, the SYTO® 9 stain generally labels all bacteria in a population—those with intact membranes and those with damaged membranes. In contrast, propidium iodide penetrates only bacteria with damaged membranes, causing a reduction in the SYTO® 9 stain fluorescence when both dyes are present.
(§3) Each mixture was incubated for 15 min at 56° C.
(§4) For the lysis experiments, all possible combinations of lysis buffers L1.1 to L11.1 with cell suspensions (A), (B), and (C) were examined.
(§5) An incubated cell suspension with bacteria was scored as a “positive” lysate if in the incubated mixture SYTO® 9 stainable morphological structures corresponding to the respective bacterial cells were not detectable. Otherwise, when SYTO® 9 stainable morphological structures were still present, the incubated cell suspension was scored as “negative”. In an analogous way, a cell suspension with yeast cells was scored, however based on Calcofluor™ White M2R staining.
(§6) In each experiment a direct comparison was made using the fluorescent label on an untreated but similarly diluted cell suspension as a reference. In order to exclude any influence of a compound in the lysis reagents on fluorescence, any presence or absence of morphological structures corresponding to the respective microbial cells was verified using light microscopy.

[2] = tested on: Escherichia coli BMTU 3294; assay: Lysis of microbial cells in suspension, microscopic assessment (SYTO 9 staining): Gram-negative; assay type: cell-based; settings: for lysis of Gram-negative cell walls, summary in words: reagent and concentration as in Tables 1 and 2 (Example 4)
Method: as §1, §2, §3, §4, §5, §6

[3] = about 2.25 M in the mixture with the bacterial suspension

Compound	lysis of Gram-positive cell walls, summary in words [1]	lysis of Gram-negative cell walls, summary in words [2]	destruction of Gram-positive cell walls ([1]; 247.5 mM (or lower))	destruction of Gram-negative cell walls ([2]; 247.5 mM (or lower))	destruction of Gram-positive cell walls ([1]; 375 mM in the mixture)	destruction of Gram-positive cell walls [1, 3]	destruction of Gram-negative cell walls ([2]; 375 mM in the mixture)	destruction of Gram-negative cell walls [2, 3]	further results
1-butyl-3-methyl-imidazolium-2(2-methoxyethoxy)ethylsulfate [ECOENG™41M]	destroy the cell walls of both Gram-positive and Gram-negative cells	destroy the cell walls of both Gram-positive and Gram-negative cells							concentration required to destroy Gram-positive cell walls, relative to BMIM-SCN (about 2.25 M in the mixture) ([1]; lysis reagent L2.1): a quarter of this concentration; concentration required to destroy Gram-negative cell walls together with Gram-positive, relative to BMIM-SCN (about 2.25 M in the mixture) ([2]; lysis reagent L2.1): a quarter of this concentration
1-butyl-3-methyl-imidazolium-octylsulfate			falls short of destroying bacterial cell walls	falls short of destroying bacterial cell walls					destruction of Gram-positive cell walls ([1]; any concentration tested): no concentration was found; destruction of Gram-negative cell walls ([2]; higher than 247.5 mM and up to 375 mM): capable of destroying the cell walls of Gram-negative bacteria
1-butyl-3-methyl-imidazolium-thiocyanate [BMIM-SCN]	destroy the cell walls of both Gram-positive and Gram-negative cells	destroy the cell walls of both Gram-positive and Gram-negative cells			falls short of destroying bacterial cell walls	destroyed	falls short of destroying bacterial cell walls	destroyed	destruction of Gram-negative cell walls ([2]; about 562.5 mM in the mixture): lysed
N#CS.N=C(N)N [GuaSCN, Guanidine thiocyanate, reference compound]					ineffective	destroyed	ineffective	destroyed	
Cc1ccc(S(=O)(=O)[O-])cc1.Cc1ccc(S(=O)(=O)[O-])cc1.Cn1cc[n+](CCCC[n+]2ccn(C)c2)c1 [MITS, 1-methyl-1-[4-(3-methyl-3H-imidazol-1-ium)-but-1-yl]-3H-imidazolium-di(toluylsulfate)]			neither Gram-negative nor Gram-positive cell walls were destroyed	neither Gram-negative nor Gram-positive cell walls were destroyed					destruction of Gram-positive cell walls ([1]; 247.5 mM increased by about 50% or more): destruction of Gram-positive cell walls
